Measured values from patent US9040673B2, “Synthesis and identification of novel RSK-specific inhibitors” (University of Virginia Patent Foundation, priority 2009, dated 2015).
Where two headings read alike, the source gives them in different places. One block for each compound: values may come before it.

Assays:
MCF-10A cells = assay: MCF-10A cell proliferation; type: cell-based, human
Description: The cell number was measured after 48 h of treatment. Values given are the fold proliferation as a percentage of that observed with vehicle-treated cells. Points, mean (n=2 in quadruplicate); bars=SD.
FIGS. 8A-8D SL0101-1 inhibits the proliferation of cancer cells but not normal cells. […] Cell viability was measured at indicated time points. Proliferation assays were conducted using CellTiter-Glo Luminescent Cell Viability Assay (Promega), performed 44 hrs after treatment for FIGS. 8A &B and at indicated points for FIG. 8C. The data are expressed relative to time 0.
(§1) Cell Culture. For proliferation studies cells were seeded at 2500 to 5000 cells per well in 96 well tissue culture plates in the appropriate medium as described by American Type Culture Collection. After 24 hr, the medium was replaced with medium containing compound or vehicle as indicated. Cell viability was measured at indicated time points using CellTiter-Glo™ assay reagent (Promega) according to manufacturer's protocol. For in vivo inhibition studies, cells were seeded at 2.5×10^5 cells/well in 12 well cell culture clusters. After 24 hr, the cells were serum starved for 24 hr then incubated with compound or vehicle for 3 hr prior to a 30 min PDB stimulation. Cells were lysed as previously described (J. Biol. Chem. 273, 13317-13323 (1998)). The lysates were normalized for total protein, electrophoresed and immunoblotted. For cell imaging, Ha-Ras-transformed NIH/3T3 cells were seeded on LABTEK II chamber slides (Nalge) at a density of 1×10^4 cells/well. After 24 hr, fresh medium was added the indicated compounds or vehicle. Images were taken 48 hr after treatment at a magnification of 20×.

MCF-7 cells = assay: MCF-7 cell proliferation (CellTiter-Glo cell viability); type: cell-based, human; conditions: for inhibition of MCF-7 cell growth: 50 uM; for IC50: 48 hours of treatment, read-out: concentration inhibiting proliferation of MCF-7 cells by 50%
p140, a RSK substrate = assay: PDB-induced p140 phosphorylation in MCF-7 cells (immunoblot); type: cell-based, human; conditions: 50 μM, 3 hr pre-incubation, 500 nM PDB 30 min
Description: To determine whether SL0101-1 inhibits RSK in intact cells, phosphorylation of p140, a RSK substrate of unknown function, was examined in a human breast cancer cell line, MCF-7. MCF-7 and MCF-10A cells were pre-incubated with vehicle, 50 μM U0126 or the indicated concentration of SL0101-1 for 3 hr (FIG. 8D). Cells were treated with 500 nM PDB for 30 min prior to lysis. Protein concentration of lysates was measured and lysates were electrophoresed, transferred and immunoblotted. […] Pre-incubation of cells with 100 μM SL0101-1 abrogates phorbol dibutyrate (PDB)-induced p140 phosphorylation as does 50 μM U0126, a MEK inhibitor.
as §1, with “The lysates were normalized for total protein, electrophoresed and immunoblotted. For cell imaging, Ha-Ras-transformed NIH/3T3 cells were seeded on LABTEK II chamber slides (Nalge) at a density of 1×10^4 cells/well. After 24 hr, fresh medium was added the indicated compounds or vehicle. Images were taken 48 hr after treatment at a magnification of 20×.” left out

RSK2 = RSK2 (Homo sapiens, UniProt P51812)
RSK2, sequence (P51812 1-397 limits assumed): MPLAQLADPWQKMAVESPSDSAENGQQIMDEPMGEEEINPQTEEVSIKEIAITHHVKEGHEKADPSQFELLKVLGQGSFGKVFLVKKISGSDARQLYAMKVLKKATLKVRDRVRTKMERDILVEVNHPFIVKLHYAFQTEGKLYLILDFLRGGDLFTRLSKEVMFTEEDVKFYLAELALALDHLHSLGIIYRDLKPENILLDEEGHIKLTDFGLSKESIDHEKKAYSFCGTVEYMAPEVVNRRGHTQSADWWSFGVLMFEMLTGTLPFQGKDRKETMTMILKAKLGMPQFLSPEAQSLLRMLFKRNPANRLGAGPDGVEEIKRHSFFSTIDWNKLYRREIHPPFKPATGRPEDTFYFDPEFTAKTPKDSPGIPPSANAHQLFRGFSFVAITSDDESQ

CaLu-1 cells = assay: Calu-1 wound migration after siRNA transfection; type: cell-based, human; conditions: wound 48 hours after, 19 hr
Description: Calu-1 cells were transiently transfected in suspension with either control siRNA, RSK1-specific siRNA, RSK2-specific siRNA or both RSK-1 and RSK2-specific siRNA. […] After four hours, the transfection medium was removed and the cells were plated in […] tissue-culture clusters. Forty-eight hours after transfection, scratches were made in the monolayer of cells using sterile, disposable micropipette tips. Images were captured-immediately following the wounding, and 19 hours after wounding. […] By 19 hr, the cells transfected with control siRNA have migrated into the wound. […] Thus, RSK activity is required for Calu-1 migration. More particularly, the ability of the entire monolayer to respond to the wound is depressed in the SL0101-treated cells as well as the siRNA transfected.

HUVEC cells = assay: VEGF-induced capillary network formation in HUVEC cells; type: cell-based, human; conditions: 20 μM, 10 ng/ml VEGF, 20 hours
Description: Interfering with tube formation is a characteristic common to anti-angiogenic treatments. HUVEC cells were seeded at a density of 1×10^5 cells per well in 24-well culture dishes coated in growth factor-reduced Matrigel (BD Biosciences). […] The cells were incubated at 37° C. for 20 hours. Images of the cells were captured for analysis of the capillary-like network.

[1] = indicated concentration, 48 h of treatment

Compound: N#CC(=C(/N)Sc1ccccc1N)/C(C#N)=C(\N)Sc1ccccc1N [U0126]
proliferation of MCF-10A cells (MCF-10A cells; 50 μM (FIG. 8A)): halted proliferation
proliferation of MCF-7 cells (MCF-7 cells; 50 μM (FIG. 8A)): halted proliferation
PDB-induced p140 phosphorylation (p140, a RSK substrate): abrogates

Compound: CC(=O)O[C@@H]1[C@@H](OC(C)=O)[C@H](C)O[C@@H](Oc2c(-c3ccc(O)cc3)oc3cc(O)cc(O)c3c2=O)[C@@H]1OC(C)=O [3Ac-SL0101, kaempferol 3-O-(2″,3″,4″-tri-O-acetyl-α-L-rhamnopyranoside)]
proliferation of MCF-10A (nontransformed) cells (MCF-10A cells; [1]): not nontransformed breast cell proliferation
proliferation of MCF-7 cells (MCF-7 cells; [1]): selectively inhibits MCF-7 breast cancer cell proliferation

IC50 (RSK2): ~0.26 µM
Compound: CC(=O)OC1C(C)OC(Oc2c(-c3ccc(O)cc3)oc3cc(O)cc(O)c3c2=O)C(OC(C)=O)C1O [2″,4″-di-O-acetyl-SL0101, kaempferol 3-O-(2″,4″-di-O-acetyl-α-L-rhamnopyranoside)]
inhibition of MCF-7 cell growth (MCF-7 cells): similarly effective at inhibiting MCF-7 cell growth

Compound: RSK2-specific siRNA: custom oligonucleotide to Rsk2 mRNA, AACCUAUGGGAGAGGAGGAGA; SEQ ID NO: 2 (listed as RNA, chemistry not given here; listed as Homo sapiens)
migration of Calu-1 cells into wound (CaLu-1 cells): reduced ability to migrate into the wound

IC50 (RSK2): ~0.14 µM
Compound: CC(=O)OC1C(C)OC(Oc2c(-c3ccc(O)cc3)oc3cc(O)cc(O)c3c2=O)C(O)C1O [4″-mono-O-acetyl-SL0101, kaempferol 3-O-(4″-mono-O-acetyl-α-L-rhamnopyranoside)]
inhibition of MCF-7 cell growth (MCF-7 cells): did not inhibit MCF-7 cell proliferation

Compound: Cn1cc(C2=C(c3cn(CCCSC(=N)N)c4ccccc34)C(=O)NC2=O)c2ccccc21 [Ro 318220]
proliferation of MCF-10A cells (MCF-10A cells; 500 nM): attenuated proliferation
proliferation of MCF-7 cells (MCF-7 cells; 500 nM): attenuated proliferation

IC50 (MCF-7 cells; Homo sapiens, MCF7): ~30 µM
Compound: CC(=O)OC1C(C)CC(Oc2c(-c3ccc(O)cc3)oc3cc(O)cc(O)c3c2=O)C(O)C1OC(C)=O [compound 14, Kaempferol L-carbarhamnoside 3″,4″-diacetate]
proliferation of MCF-7 cells (MCF-7 cells; [1]): inhibit proliferation

Compound: CC(C)c1cc(/C=C(\C#N)C(=O)NCCCc2ccccc2)cc(C(C)C)c1O [SU1498]
capillary-like network formation (HUVEC cells): rounded nodes with few tube-like projections

Compound: CC(=O)OC1C(C)CC(Oc2c(-c3ccc(O)cc3)oc3cc(O)cc(O)c3c2=O)C(O)C1O [compound 12, Kaempferol L-carbarhamnoside 4″-acetate]
proliferation of MCF-7 cells (MCF-7 cells; [1]): inhibit proliferation

IC50 (MCF-7 cells; Homo sapiens, MCF7): ~30 µM
Compound: CCCC1OC(Oc2c(-c3ccc(O)cc3)oc3cc(O)cc(O)c3c2=O)C(O)C(OC(C)=O)C1OC(C)=O [compound 16, Kaempferol-6″ethyl-L-rhamnoside-3″,4″-diacetate]
proliferation of MCF-7 cells (MCF-7 cells; [1]): inhibit proliferation

IC50 (MCF-7 cells): ~30 µM
Compound: CC(=O)OC1C(C)CC(Oc2c(-c3ccc(O)cc3)oc3cc(O)cc(O)c3c2=O)C(OC(C)=O)C1O [compound 13, Kaempferol L-carbarhamnoside 2″,4″-diacetate]
proliferation of MCF-7 cells (MCF-7 cells; [1]): inhibit proliferation

Compound: RSK1-specific siRNA: custom oligonucleotide to Rsk1 mRNA, AAGAAGCUGGACUUCAGCCGU; SEQ ID NO: 1 (listed as RNA, chemistry not given here; listed as Homo sapiens)
migration of Calu-1 cells into wound (CaLu-1 cells): reduced ability to migrate into the wound

Compound: O=c1c(O)c(-c2ccc(O)cc2)oc2cc(O)cc(O)c12 [kaempferol]
growth of MCF-10A cells (MCF-10A cells; concentration not given): slows growth
growth of MCF-7 cells (MCF-7 cells; concentration not given): slows growth
